In ChEMBL document CHEMBL3272159, “Synthesis and antihypertensive activity of 1-amino-3,4-dihydroisoquinolines” (1977):

tested on: Rattus norvegicus; assay: Antihypertensive activity in po dosed renal hypertensive rat assessed as dose required to produce lowering of blood pressure to <= 130 mm after 2 to 24 hrs by photoelectric tensometric analysis; type: functional

SMILES | ED50 [mg/kg]
COc1cc(/C=N/NC2=NCCc3ccccc32)cc(OC)c1O.Cl | > 50
NNC1=NCCc2ccccc21 | 30
F[B-](F)(F)F.[NH3+]NC1=NCC(O)c2ccccc21 (stereo unspecified) | > 50
Cl.NC1=NCCc2ccccc21 | > 50
CCCCCCNC1=NCCc2ccccc21.O=S(=O)(O)O | > 50
CN(C)CCNC1=NCCc2ccccc21.Cl | > 50
O=S(=O)(O)O.c1ccc2c(c1)CCN=C2NCc1ccncc1 | > 50
COc1ccc(CCNC2=NCCc3ccccc32)cc1OC.O=S(=O)(O)O | > 50
O=S(=O)(O)O.c1ccc2c(c1)CCN=C2NCCc1ccc2c(c1)OCO2 | > 50
Nc1ccc(CCNC2=NCCc3ccccc32)cc1Cl.O=S(=O)(O)O | > 50
COc1cc(CCNC2=NCCc3ccccc32)cc(OC)c1OC.O=S(=O)(O)O | > 50
Cl.Oc1ccc(CCNC2=NCCc3ccccc32)cc1O | > 50
CCN(CC)CCOc1ccc(CNC2=NCCc3ccccc32)cc1.O=S(=O)(O)c1cccc2c(S(=O)(=O)O)cccc12 | > 50
COc1ccc(NC2=NCCc3ccccc32)cc1 | > 50
Cl.c1ccc2c(c1)CCN=C2N1CCCCC1 | > 50
O=S(=O)(O)c1cccc2c(S(=O)(=O)O)cccc12.c1ccc(CONC2=NCCc3ccccc32)cc1 | > 50
CN(C)NC1=NCCc2ccccc21.Cl | > 50
CC(C)=NNC1=NCCc2ccccc21.O=S(=O)(O)O | 15
CCCC/C=N/NC1=NCCc2ccccc21.Cl | > 50
C/C=N/NC1=NCCc2ccccc21.O=S(=O)(O)O | 15
O=S(=O)(O)O.c1ccc2c(c1)CCN=C2NN=C1CCCCC1 | > 50
C/C=C/C(C)=N\NC1=NCCc2ccccc21.O=S(=O)(O)O | > 50
C(=N\NC1=NCCc2ccccc21)/c1ccccc1.Cl | > 50
COc1cccc(/C=N/NC2=NCCc3ccccc32)c1OC.Cl | > 50
CC1Cc2ccccc2C(NN)=N1.Cl (stereo unspecified) | 40
NNc1nncc2ccccc12 [HYDRALAZINE] | 10
